Assay [1] has as its target HER2 (A775_G776insYVMA) expressing Ba/F3 stable cell line (Homo sapiens, UniProt P04626, DUP772-775, cells depend on it). Description: Cellular proliferation (Alamar Blue) assay, HER2 YVMA Ba/F3. The assay is classed as cell-based. To be noted: HER2 A775_G776insYVMA Ba/F3, 72 hr, read-out: YVMA IC50. An outline of the steps: (§1)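 Fluorescence read-out (ex 540/em 590 nm) after 3 h Alamar Blue incubation, following 72 h compound exposure at 37 °C, 5% CO2. Final compound range 10–0.0005 μM, 3-fold steps; Ba/F3 cells plated 15,000/well in RPMI + 10% FBS overnight beforehand.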

Assay [2] concerns the target EGFR(D770_N771insSVD) expressing Ba/F3 stable cell line (Homo sapiens, UniProt P00533, DUP768-770, cells depend on it). As to the kind of experiment: Cellular proliferation (Alamar Blue) assay, EGFR D770_N771insSVD Ba/F3. It counts as cell-based. To be noted: EGFR D770_N771insSVD Ba/F3, 72 hr, read-out: D770 IC50. An outline of the steps:
as §1
A general note: The colour change of resazurin is a common sign of viable cells or microbes.

The test system of assay [3] is H1975 cells (L858R_T790M mutant). As to the kind of experiment: H1975 proliferation assay. The assay is classed as cell-based. To be noted: Homo sapiens, NCI-H1975; read-out: Proliferation_Assay H1975 cells-EC50_nM L858R_T790M_mutant.
The target in assay [4] is EGFR (A767_dupASV) expressing Ba/F3 stable cell line (Homo sapiens, UniProt P00533, DUP767-769, cells depend on it). Description: Cellular proliferation (Alamar Blue) assay, EGFR A767_dupASV Ba/F3. It counts as cell-based. The following applies: EGFR A767_dupASV Ba/F3, 72 hr, read-out: A767 IC50. An outline of the steps:
as §1

Assay [5] has as its system A431 cells. Description: Cellular proliferation (Alamar Blue) assay, A431. The following applies: Homo sapiens, A-431; A431 cells, 72 hr, Alamar Blue; read-out: A431 IC50. It counts as cell-based. In a few lines:
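Seventy-two-hour growth assay with 3-fold compound titration (final 10–0.0005 μM) and Alamar Blue fluorescence end point, ex 540/em 590 nm.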

Assay [6] deals with T1, EGFR (T790M/L858R) (Homo sapiens, UniProt P00533, L858R/T790M).
T1 construct: GST; purchased Proqinase
T1 sequence (P00533 25-1210 T790M/L858R): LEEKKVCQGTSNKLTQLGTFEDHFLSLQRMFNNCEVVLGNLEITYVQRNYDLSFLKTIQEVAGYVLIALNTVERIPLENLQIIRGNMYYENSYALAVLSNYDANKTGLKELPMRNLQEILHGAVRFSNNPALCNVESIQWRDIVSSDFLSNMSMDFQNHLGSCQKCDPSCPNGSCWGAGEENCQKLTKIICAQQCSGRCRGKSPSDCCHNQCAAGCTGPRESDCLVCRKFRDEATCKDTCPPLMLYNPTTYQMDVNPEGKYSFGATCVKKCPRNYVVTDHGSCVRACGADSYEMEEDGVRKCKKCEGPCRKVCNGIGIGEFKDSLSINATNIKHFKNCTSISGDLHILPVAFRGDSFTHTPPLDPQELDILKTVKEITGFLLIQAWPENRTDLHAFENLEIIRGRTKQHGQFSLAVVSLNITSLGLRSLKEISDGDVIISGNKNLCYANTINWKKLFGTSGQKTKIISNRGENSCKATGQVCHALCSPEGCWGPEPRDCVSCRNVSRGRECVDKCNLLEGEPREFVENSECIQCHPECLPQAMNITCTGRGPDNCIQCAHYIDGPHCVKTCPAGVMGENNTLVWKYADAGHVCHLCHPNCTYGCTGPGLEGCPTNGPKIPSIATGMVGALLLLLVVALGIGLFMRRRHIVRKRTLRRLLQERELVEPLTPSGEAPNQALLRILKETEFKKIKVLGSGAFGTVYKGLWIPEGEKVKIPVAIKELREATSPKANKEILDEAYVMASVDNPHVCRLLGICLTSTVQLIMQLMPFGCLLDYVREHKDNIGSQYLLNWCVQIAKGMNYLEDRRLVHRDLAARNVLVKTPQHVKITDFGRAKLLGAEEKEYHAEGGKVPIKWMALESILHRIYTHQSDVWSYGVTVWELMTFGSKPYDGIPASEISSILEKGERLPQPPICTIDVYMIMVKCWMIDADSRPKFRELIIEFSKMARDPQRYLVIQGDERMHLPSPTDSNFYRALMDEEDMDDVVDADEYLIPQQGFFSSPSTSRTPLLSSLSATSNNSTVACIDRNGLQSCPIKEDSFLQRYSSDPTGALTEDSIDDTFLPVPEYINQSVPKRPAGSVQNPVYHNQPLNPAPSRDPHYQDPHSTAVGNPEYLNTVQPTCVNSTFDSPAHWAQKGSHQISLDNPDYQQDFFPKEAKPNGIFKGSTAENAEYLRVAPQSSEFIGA
As to the kind of experiment: EGFR L858R/T790M enzyme inhibition assay (HTRF). The following applies: 5 μM ATP, 60 min, read-out: EGFR_L858R T790M_IC50_nM. It counts as biochemical. In a few lines: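 HTRF kinase assay with 2.5 nM GST-EGFR T790M/L858R, 0.5 μM biotinylated gastrin peptide and 5 μM ATP in HEPES pH 7.4 with Mg/Mn, 60 min at room temperature; compounds from 10 μM top. Phosphotyrosine detected by Eu anti-pTyr/SA-APC; IC50 from % inhibition.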
(In TR-FRET formats the signal depends on donor and acceptor labels being close together.)

Some results are limits rather than exact numbers.

EGFR (A767_dupASV) expressing Ba/F3 stable cell line, sequence (P00533 with tags, fused parts or gaps DUP767-769): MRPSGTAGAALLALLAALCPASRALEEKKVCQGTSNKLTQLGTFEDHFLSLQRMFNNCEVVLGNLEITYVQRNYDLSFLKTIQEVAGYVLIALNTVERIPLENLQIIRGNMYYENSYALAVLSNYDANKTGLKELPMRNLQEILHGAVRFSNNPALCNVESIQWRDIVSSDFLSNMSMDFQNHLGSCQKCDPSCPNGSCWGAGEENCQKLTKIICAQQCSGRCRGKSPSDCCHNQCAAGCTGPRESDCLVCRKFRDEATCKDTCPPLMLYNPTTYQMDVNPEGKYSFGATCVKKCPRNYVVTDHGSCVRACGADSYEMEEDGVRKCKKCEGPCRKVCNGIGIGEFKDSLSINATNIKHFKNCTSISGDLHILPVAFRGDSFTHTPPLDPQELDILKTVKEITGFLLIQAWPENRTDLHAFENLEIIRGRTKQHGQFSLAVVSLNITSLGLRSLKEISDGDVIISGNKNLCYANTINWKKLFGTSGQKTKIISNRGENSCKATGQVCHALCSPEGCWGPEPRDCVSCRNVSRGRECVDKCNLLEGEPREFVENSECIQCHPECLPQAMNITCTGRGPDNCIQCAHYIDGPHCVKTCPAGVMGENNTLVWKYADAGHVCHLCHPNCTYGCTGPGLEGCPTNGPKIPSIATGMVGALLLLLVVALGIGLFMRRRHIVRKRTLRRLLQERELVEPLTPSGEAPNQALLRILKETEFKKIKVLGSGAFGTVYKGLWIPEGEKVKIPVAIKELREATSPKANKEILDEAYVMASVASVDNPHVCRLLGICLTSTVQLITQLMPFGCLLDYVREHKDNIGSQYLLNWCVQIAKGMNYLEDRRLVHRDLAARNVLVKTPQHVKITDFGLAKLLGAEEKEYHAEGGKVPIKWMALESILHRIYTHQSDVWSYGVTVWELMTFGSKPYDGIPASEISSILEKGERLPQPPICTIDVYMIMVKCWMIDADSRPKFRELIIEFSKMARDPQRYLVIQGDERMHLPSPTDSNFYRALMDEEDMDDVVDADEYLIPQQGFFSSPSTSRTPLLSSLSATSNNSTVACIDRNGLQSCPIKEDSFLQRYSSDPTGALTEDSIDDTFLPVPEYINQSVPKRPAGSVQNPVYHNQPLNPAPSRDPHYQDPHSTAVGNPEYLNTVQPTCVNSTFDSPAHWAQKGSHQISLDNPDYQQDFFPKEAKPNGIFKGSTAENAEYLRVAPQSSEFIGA
EGFR(D770_N771insSVD) expressing Ba/F3 stable cell line, sequence (P00533 with tags, fused parts or gaps DUP768-770): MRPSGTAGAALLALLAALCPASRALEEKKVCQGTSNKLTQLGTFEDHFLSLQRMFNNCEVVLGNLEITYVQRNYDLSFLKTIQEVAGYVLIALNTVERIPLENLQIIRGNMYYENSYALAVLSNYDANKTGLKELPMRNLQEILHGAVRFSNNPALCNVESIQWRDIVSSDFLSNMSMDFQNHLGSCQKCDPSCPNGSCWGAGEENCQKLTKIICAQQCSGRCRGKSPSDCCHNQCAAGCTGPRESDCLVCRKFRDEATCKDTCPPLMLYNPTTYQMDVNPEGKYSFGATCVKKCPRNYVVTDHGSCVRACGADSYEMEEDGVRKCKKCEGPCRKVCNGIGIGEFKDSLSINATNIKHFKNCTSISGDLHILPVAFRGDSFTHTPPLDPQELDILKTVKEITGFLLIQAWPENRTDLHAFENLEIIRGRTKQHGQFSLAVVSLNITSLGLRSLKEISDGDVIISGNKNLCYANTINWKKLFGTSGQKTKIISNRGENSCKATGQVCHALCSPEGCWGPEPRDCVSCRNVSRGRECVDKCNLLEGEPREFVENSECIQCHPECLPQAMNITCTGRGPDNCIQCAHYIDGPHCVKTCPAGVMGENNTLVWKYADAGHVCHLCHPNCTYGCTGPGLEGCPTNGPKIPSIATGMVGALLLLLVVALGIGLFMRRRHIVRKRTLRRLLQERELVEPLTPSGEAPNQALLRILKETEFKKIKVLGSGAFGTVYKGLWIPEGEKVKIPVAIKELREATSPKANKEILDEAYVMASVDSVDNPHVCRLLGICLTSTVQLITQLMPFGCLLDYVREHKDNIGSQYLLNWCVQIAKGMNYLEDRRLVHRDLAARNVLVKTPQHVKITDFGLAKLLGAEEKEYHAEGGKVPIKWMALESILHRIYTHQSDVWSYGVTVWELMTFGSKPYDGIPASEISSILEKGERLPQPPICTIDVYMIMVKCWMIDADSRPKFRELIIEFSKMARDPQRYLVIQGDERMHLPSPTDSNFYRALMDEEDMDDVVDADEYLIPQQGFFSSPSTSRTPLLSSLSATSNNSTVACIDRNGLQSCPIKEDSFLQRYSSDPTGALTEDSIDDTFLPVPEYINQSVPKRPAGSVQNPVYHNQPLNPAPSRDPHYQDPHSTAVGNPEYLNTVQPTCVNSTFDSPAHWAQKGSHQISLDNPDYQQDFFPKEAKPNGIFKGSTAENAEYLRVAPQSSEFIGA
HER2 (A775_G776insYVMA) expressing Ba/F3 stable cell line, sequence (P04626 with tags, fused parts or gaps DUP772-775): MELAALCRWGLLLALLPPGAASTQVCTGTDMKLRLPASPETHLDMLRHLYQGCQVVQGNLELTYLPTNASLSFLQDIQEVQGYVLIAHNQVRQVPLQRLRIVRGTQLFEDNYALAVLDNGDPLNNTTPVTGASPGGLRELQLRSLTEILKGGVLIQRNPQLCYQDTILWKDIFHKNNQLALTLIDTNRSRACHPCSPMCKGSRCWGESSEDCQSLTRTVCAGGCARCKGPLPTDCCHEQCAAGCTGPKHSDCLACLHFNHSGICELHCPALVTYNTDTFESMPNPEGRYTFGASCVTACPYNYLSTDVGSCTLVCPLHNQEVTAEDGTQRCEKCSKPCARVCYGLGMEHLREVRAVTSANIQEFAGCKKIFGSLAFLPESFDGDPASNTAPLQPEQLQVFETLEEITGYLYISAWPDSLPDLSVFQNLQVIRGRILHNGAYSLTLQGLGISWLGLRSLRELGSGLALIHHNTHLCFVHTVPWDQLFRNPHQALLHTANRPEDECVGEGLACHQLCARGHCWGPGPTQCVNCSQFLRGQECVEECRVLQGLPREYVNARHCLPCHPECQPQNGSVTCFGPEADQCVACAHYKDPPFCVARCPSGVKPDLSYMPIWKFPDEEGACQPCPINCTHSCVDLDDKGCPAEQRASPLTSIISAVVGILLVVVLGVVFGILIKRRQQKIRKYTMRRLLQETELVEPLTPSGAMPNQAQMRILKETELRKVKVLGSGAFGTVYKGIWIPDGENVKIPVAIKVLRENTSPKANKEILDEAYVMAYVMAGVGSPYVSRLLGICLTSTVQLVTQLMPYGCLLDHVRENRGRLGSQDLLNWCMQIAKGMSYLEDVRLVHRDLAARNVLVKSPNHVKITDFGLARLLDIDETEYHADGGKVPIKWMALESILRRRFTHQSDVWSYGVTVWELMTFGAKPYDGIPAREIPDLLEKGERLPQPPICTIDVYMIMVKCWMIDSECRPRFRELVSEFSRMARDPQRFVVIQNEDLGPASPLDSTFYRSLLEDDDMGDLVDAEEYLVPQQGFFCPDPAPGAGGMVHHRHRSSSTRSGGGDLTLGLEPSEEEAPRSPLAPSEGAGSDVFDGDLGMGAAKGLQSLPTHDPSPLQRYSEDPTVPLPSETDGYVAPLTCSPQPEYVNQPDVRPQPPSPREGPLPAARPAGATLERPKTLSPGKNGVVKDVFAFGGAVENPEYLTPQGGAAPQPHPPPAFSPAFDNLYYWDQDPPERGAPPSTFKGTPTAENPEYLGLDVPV

Turning to `C=CC(=O)Nc1cccc(N2C(=O)N(Cc3ccccc3)Cc3cnc(Nc4cn(CC(F)(F)F)nc4C)nc32)c1` [Compound 6, N-(3-(3-benzyl-7-((3-methyl-1-(2,2,2-trifluoroethyl)-1H-pyrazol-4-yl)amino)-2-oxo-3,4-dihydropyrimido[4,5-d]pyrimidin-1(2H)-yl)phenyl)acrylamide], the values for the GI50 in assay [1], in assay [2] and in assay [4] were 11 nM, 9 nM and 9 nM, respectively. Besides, in assay [3], the EC50 was 8.1 nM. Also, the results for the IC50 in assay [5] and in assay [6] were 1890 nM and 1 nM, respectively.
On to `C=CC(=O)NC1CCCC(N2C(=O)N(Cc3ccccc3)Cc3cnc(Nc4cnn(C)c4)nc32)C1` (stereo not drawn) [Compound 24, N-(3-(3-benzyl-7-((1-methyl-1H-pyrazol-4-yl)amino)-2-oxo-3,4-dihydropyrimido[4,5-d]pyrimidin-1(2H)-yl)cyclohexyl)acrylamide], for which the GI50 in assay [2] amounted to 340 nM; in assay [4], 356 nM. For the same molecule, in assay [3], the EC50 amounted to 71 nM. Besides, the IC50 worked out at 8340 nM in assay [5] and 53 nM in assay [6].
The like results for `C=CC(=O)Nc1cccc(N2C(=O)N(Cc3ccccc3)Cc3cnc(Nc4nc(C)cs4)nc32)c1` [Compound 25, N-(3-(3-benzyl-7-((4-methylthiazol-2-yl)amino)-2-oxo-3,4-dihydropyrimido[4,5-d]pyrimidin-1(2H)-yl)phenyl)acrylamide] were, in that order, 69 nM, 320 nM, 29 nM, 83 nM and 3 nM.
As for `CN(C)C/C=C/C(=O)Nc1cccc(N2C(=O)N(Cc3ccccc3)Cc3cnc(Nc4cn(C)nn4)nc32)c1` [Compound 26, (E)-N-(3-(3-benzyl-7-((1-methyl-1H-1,2,3-triazol-4-yl)amino)-2-oxo-3,4-dihydropyrimido[4,5-d]pyrimidin-1(2H)-yl)phenyl)-4-(dimethylamino)but-2-enamide], the GI50 turned out to be 3690 nM in assay [2] and 3330 nM in assay [4]. Besides, in assay [3], the EC50 is 222 nM. Also, the IC50 was found to be 3080 nM in assay [5] and 5 nM in assay [6].
Turning to `Cc1cnc(Nc2ncc3c(n2)N(C2CCCC(NC(=O)/C=C/CN(C)C)C2)C(=O)N(Cc2ccccc2)C3)s1` (stereo not drawn) [Compound 27, (E)-N-(3-(3-benzyl-7-((5-methylthiazol-2-yl)amino)-2-oxo-3,4-dihydropyrimido[4,5-d]pyrimidin-1(2H)-yl)cyclohexyl)-4-(dimethylamino)but-2-enamide], the GI50 was at least 10000 nM in assay [2] and 9190 nM in assay [4]. Also, in assay [3], the EC50 is at least 10000 nM. Besides, the IC50 stood at 4400 nM in assay [5] and 303 nM in assay [6].
`Cc1csc(Nc2ncc3c(n2)N(C2CCCC(NC(=O)/C=C/CN(C)C)C2)C(=O)N(Cc2ccccc2)C3)n1` (stereo not drawn) [Compound 29, (E)-N-(3-(3-benzyl-7-((4-methylthiazol-2-yl)amino)-2-oxo-3,4-dihydropyrimido[4,5-d]pyrimidin-1(2H)-yl)cyclohexyl)-4-(dimethylamino)but-2-enamide]: the GI50 amounted to 431 nM in assay [2] and 2600 nM in assay [4]. Moreover, the EC50 in assay [3] is 1080 nM. Further, the values for the IC50 in assay [5] and in assay [6] were 4090 nM and 660 nM, respectively.
Take `C=CC(=O)NC1CCCC(N2C(=O)N(Cc3ccccc3)Cc3cnc(Nc4ncc(C)s4)nc32)C1` (stereo not drawn) [Compound 30, N-(3-(3-benzyl-7-((5-methylthiazol-2-yl)amino)-2-oxo-3,4-dihydropyrimido[4,5-d]pyrimidin-1(2H)-yl)cyclohexyl)acrylamide]: the GI50 in assay [2] came out at 2570 nM; in assay [4], 2810 nM. Besides, the EC50 in assay [3] worked out at 413 nM. Further, the IC50 worked out at 920 nM in assay [5] and 164 nM in assay [6].
As for `CN(C)C/C=C/C(=O)NC1CCCC(N2C(=O)N(Cc3ccccc3)Cc3cnc(Nc4cnn(C)c4)nc32)C1` (stereo not drawn) [Compound 31, (E)-N-(3-(3-benzyl-7-((1-methyl-1H-pyrazol-4-yl)amino)-2-oxo-3,4-dihydropyrimido[4,5-d]pyrimidin-1(2H)-yl)cyclohexyl)-4-(dimethylamino)but-2-enamide], the GI50 stood at 3480 nM in assay [2] and 3320 nM in assay [4]. The EC50 in assay [3] amounted to 299 nM. Also, the IC50 came out at 1970 nM in assay [5] and 281 nM in assay [6].
Turning to `Cc1cc(Nc2ncc3c(n2)N(C2CCCC(NC(=O)/C=C/CN(C)C)C2)C(=O)N(Cc2ccccc2)C3)sn1` (stereo not drawn) [Compound 32, (E)-N-(3-(3-benzyl-7-((3-methylisothiazol-5-yl)amino)-2-oxo-3,4-dihydropyrimido[4,5-d]pyrimidin-1(2H)-yl)cyclohexyl)-4-(dimethylamino)but-2-enamide], the GI50 came to 2880 nM in assay [2] and 2910 nM in assay [4]. Further, the EC50 in assay [3] was found to be 176 nM. For the same molecule, the IC50 in assay [5] came out at 1370 nM; in assay [6], 82 nM.
The matching figures for `C=CC(=O)NC1CCCC(N2C(=O)N(Cc3ccccc3)Cc3cnc(Nc4cn(C)nc4Cl)nc32)C1` (stereo not drawn) [Compound 40, N-(3-(3-benzyl-7-((3-chloro-1-methyl-1H-pyrazol-4-yl)amino)-2-oxo-3,4-dihydropyrimido[4,5-d]pyrimidin-1(2H)-yl)cyclohexyl)acrylamide]: 1870 nM, 1700 nM, 323 nM, at least 10000 nM and 98 nM.
The matching figures for `CN(C)C/C=C/C(=O)Nc1cccc(N2C(=O)N(Cc3ccccc3)Cc3cnc(Nc4ccc5c(cnn5C)c4)nc32)c1` [Compound 43, (E)-N-(3-(3-benzyl-7-((1-methyl-1H-indazol-5-yl)amino)-2-oxo-3,4-dihydropyrimido[4,5-d]pyrimidin-1(2H)-yl)phenyl)-4-(dimethylamino)but-2-enamide]: 108 nM, 103 nM, 6.3 nM, 632 nM and 3.8 nM.
The like results for `CN(C)C/C=C/C(=O)Nc1cccc(N2C(=O)N(Cc3ccccc3)Cc3cnc(Nc4ccc5c(c4)cc(C#N)n5C)nc32)c1` [Compound 44, (E)-N-(3-(3-benzyl-7-((2-cyano-1-methyl-1H-indol-5-yl)amino)-2-oxo-3,4-dihydropyrimido[4,5-d]pyrimidin-1(2H)-yl)phenyl)-4-(dimethylamino)but-2-enamide] were, in that order, 106 nM, 123 nM, 37.6 nM, 56 nM and 9 nM.
With `CN(C)C/C=C/C(=O)Nc1cccc(N2C(=O)N(Cc3ccccc3)Cc3cnc(Nc4ccc5cnn(C)c5c4)nc32)c1` [Compound 45, (E)-N-(3-(3-benzyl-7-((1-methyl-1H-indazol-6-yl)amino)-2-oxo-3,4-dihydropyrimido[4,5-d]pyrimidin-1(2H)-yl)phenyl)-4-(dimethylamino)but-2-enamide], the values for the GI50 in assay [2] and in assay [4] were 350 nM and 352 nM, respectively. In addition, the EC50 in assay [3] worked out at 46.7 nM. Further, the IC50 in assay [5] is 1130 nM; in assay [6], 11 nM.
In the case of `C=CS(=O)(=O)Nc1cccc(N2C(=O)N(Cc3ccccc3)Cc3cnc(Nc4cnn(C)c4)nc32)c1` [Compound 47, N-(3-(3-benzyl-7-((1-methyl-1H-pyrazol-4-yl)amino)-2-oxo-3,4-dihydropyrimido[4,5-d]pyrimidin-1(2H)-yl)phenyl)ethenesulfonamide], the GI50 is at least 10000 nM in assay [2] and 2260 nM in assay [4]. The EC50 in assay [3] was found to be 819 nM. Moreover, the figures for the IC50 in assay [5] and in assay [6] were at least 10000 nM and 0.9 nM, respectively.
Turning to `Cc1csc(Nc2ncc3c(n2)N(c2cccc(NC(=O)/C=C/CN(C)C)c2)C(=O)N(Cc2ccccc2)C3)n1` [Compound 48, (E)-N-(3-(3-benzyl-7-((4-methylthiazol-2-yl)amino)-2-oxo-3,4-dihydropyrimido[4,5-d]pyrimidin-1(2H)-yl)phenyl)-4-(dimethylamino)but-2-enamide], the GI50 in assay [2] stood at 361 nM; in assay [4] it was 456 nM. Further, in assay [3], the EC50 amounted to 133 nM. Besides, the IC50 in assay [5] was 148 nM; in assay [6], 3.5 nM.
Turning to `Cn1cc(Nc2ncc3c(n2)N(c2cccc(NC(=O)/C=C/Cl)c2)C(=O)N(Cc2ccccc2)C3)cn1` [Compound 50, (E)-N-(3-(3-benzyl-7-((1-methyl-1H-pyrazol-4-yl)amino)-2-oxo-3,4-dihydropyrimido[4,5-d]pyrimidin-1(2H)-yl)phenyl)-3-chloroacrylamide], the GI50 is 8720 nM in assay [2] and 1350 nM in assay [4]. The EC50 in assay [3] stood at 4200 nM. The IC50 in assay [5] amounted to 5380 nM; in assay [6] it was 0.4 nM.

For the origin of these results see patent publication US20230027026A1, “FUSED PYRIMIDINE COMPOUNDS, COMPOSITIONS AND MEDICINAL APPLICATIONS THEREOF” (JUBILANT BIOSYS LIMITED, priority 2019, published 2023).
